How the values were obtained:
[1] = system: morning glory (IPOSS); assay: greenhouse herbicidal action, post-emergence treatment; assay type: in vivo; conditions: application rates of 15.6 and 31.3 g of a.s./ha
Excerpt: (§1) The seeds of the test plants were sewn separately for each species. For the post-emergence treatment, the test plants were first grown to a height of from 3 to 15 cm, depending on the plant habit, and only then treated with the active compounds which had been suspended or emulsified in water. The test plants were for this purpose either sown directly and grown in the same containers, or they were first grown separately as seedlings and transplanted into the test containers a few days prior to treatment. The application rate for the post-emergence treatment was 31.3 and 15.6 g of a.s./ha. Depending on the species, the plants were kept at 10-25° C. or 20-35° C. The test period extended over 2 to 4 weeks. During this time, the plants were tended, and their response to the individual treatments was evaluated. The evaluation was carried out using a scale from 0 to 100. 100 means no emergence of the plants, or complete destruction of at least the above-ground parts, and 0 means no damage, or normal course of growth. The plants used in the greenhouse experiments were of the following species: [table]

[2] = system: redroot pigweed (AMARE); assay: as above; assay type: in vivo; conditions: application rates of 15.6 and 31.3 g of a.s./ha
Excerpt: as §1

[3] = system: dayflower (COMBE); assay: as above; assay type: in vivo; conditions: application rates of 15.6 and 31.3 g of a.s./ha
Excerpt: as §1

[4] = system: velvet leaf (ABUTH); assay: as above; assay type: in vivo; conditions: application rates of 15.6 and 31.3 g of a.s./ha
Excerpt: as §1

[5] = system: catchweed bedstraw (GALAP); assay: as above; assay type: in vivo; conditions: application rates of 15.6 and 31.3 g of a.s./ha
Excerpt: as §1

Structure (SMILES)	melting point [°C]	herbicidal action [1]	herbicidal action [2]	herbicidal action [3]	herbicidal action [4]	herbicidal action [5]
CS(=O)(=O)Nc1cc(-c2nsc(C(F)(F)F)c2Cl)c(Cl)cc1Cl [IAa.361, N-{2,4-Dichloro-5-[4-chloro-5-(trifluoromethyl)-3-isothiazolyl]-phenyl}methanesulfonamide]	161 to 164					
COC(=O)C(C)Oc1cc(-c2nsc(C(F)(F)F)c2Cl)c(F)cc1Cl (stereo not shown) [IAa.727, Methyl 2-[2-chloro-4-fluoro-5-(4-chloro-5-trifluoromethylisothiazol-3-yl)phenoxy]propionate]		very good herbicidal action	very good herbicidal action	very good herbicidal action	very good herbicidal action	very good herbicidal action
FC(F)(F)c1snc(-c2c(Cl)cc(Cl)c3nc(C4CC4)oc23)c1Cl [IDa.67, 4,6-Dichloro-7-(4-chloro-5-trifluoromethyl-3-isothiazolyl)-2-cyclopropyl-1,3-benzoxazole]	110 to 111					
